Source: patent US6977269B1, “Method of improving animal tissue quality” (Pioneer Hi-Bred International, Inc, priority 2001, dated 2005)
Like-named read-outs stand apart in the source and are kept apart here. Marks after values point to notes of the source that are not given here.

Key:
pigs [1] = assay: Pork loin pH in swine feeding trial; assay type: in vivo
Description: (§1) Applicants assessed the effects of gamma-tocopherol supplementation on meat quality in an experiment in which pork from pigs fed one of three dietary concentrations of gamma-tocopherol was compared to pork from pigs fed either no supplemental tocopherol in excess of amounts needed to support growth and development, or one of three dietary concentrations of alpha-tocopherol.
(§2) Young pigs were fed a diet containing 15 IU/kg feed (=15 mg/kg feed=[…]) vitamin E (in the form of alpha-tocopherol acetate) up to 120 pounds. Upon reaching 120 pounds, the pigs were randomly assigned to treatments using weight as a blocking factor. Sixteen pigs were allocated to the control diet, while thirteen pigs were allocated to each test diet. Treatments consisted of typical corn-soybean meal based diets with three levels of dietary tocopherol: (1) Control diet (15 mg/kg feed alpha-tocopherol acetate); (2) diets supplemented with 150, 300 or 450 mg/kg feed alpha-tocopherol acetate; and (3) diets supplemented with 150, 300 or 450 mg/kg feed gamma-tocopherol. Diets were formulated to provide adequate levels of all nutrients and fed in four phases.
(§3) The levels of alpha-tocopherol supplementation chosen were those previously shown to improve meat quality and the pigs consuming these diets were used as positive controls. Pigs consuming diets without additional supplementation of alpha or gamma-tocopherol were used as negative controls. Pork quality was assessed using standard methods, including pH, Japanese color score, oxidative stability, retail display appearance and Minolta color values.
(§4) The trial was terminated when the average weight of a treatment replicate reached 260 pounds (minimum of 60 days). Standard carcass data (hot carcass weight, backfat, loin depth and lean) were collected. In addition to the standard carcass data collected at the slaughter plant, color, pH, marbling, firmness and Hunter Lab data were collected. Loin and ham samples were also collected for determination of gamma-tocopherol concentration.
Determination of pH was made on days 0 and 5 as an indication of pork spoilage. Oxidative rancidity was measured using 2-Thiobarbituric acid to determine TBA number. Final values were expressed as mg malonaldehyde per 1000 grams of meat. Purge was determined on the vacuum-packaged pork loins.
(§5) Data were analyzed using the GLM procedure of SAS. Due to a limited number of observations from the 150 IU alpha-tocopherol treatment, no estimates of carcass or loin quality measures are presented for that treatment. Data collected over a period of days were also analyzed as a splitplot. Contrasts were made between the Control and added tocopherol diets, Control and alpha-tocopherol, Control and gamma-tocopherol, and alpha- versus gamma-tocopherol.

pigs [2] = assay: Japanese color score of pork loin in swine feeding trial; assay type: in vivo
Description: as §1, §2, §3, §4, §5

lambs [3] = assay: Lamb carcass characteristics; assay type: in vivo; details: for Bone maturity: A0 = 1.0 ... A90 = 1.9; for Leg score: high Prime = 15 ... low Choice = 10; for Adjusted fat / Body wall thickness / Dressing percentage / Quality grade / Rib eye area / Yield grade: in vivo; for Hot carcass weight: lambs, 500 IU/kg/day for 45 days; for Flank streaking: trace = 1, slight = 2, small = 3
Source text: (§6) Interim and final weights were taken on two consecutive days after 20 and 43 days on test, respectively, to calculate average daily weight gain (ADG) and feed conversion. On the 45th day on test, the lambs were transported to a commercial packing plant and slaughtered the following morning. Standard carcass data were collected.
Characteristics included hot carcass weight, adjusted fat, rib eye area, and body wall thickness. As indicated in the last two columns under Contrasts (P values), there were no statistically significant differences (P<0.05) in carcass measurements between the alpha and gamma groups or between the control group and the alpha and gamma groups.

lambs [4] = assay: Growth performance in lambs; assay type: in vivo; details: for Interim BW: after 20 days on test; for Final BW: after 43 days on test
Source text: The effects of diet supplementation with alpha-tocopherol and gamma-tocopherol on tissue oxidation and storage life of fresh meat from lambs fed a diet supplemented with tocopherol was studied. A total of 42 weaned Western white-faced lambs (4 ewes, 38 males) were used in a feeding trial. The lambs were housed two per pen in a slatted floor barn and initially fed chopped oat hay, then gradually acclimated to a beet pulp-based basal diet. The basal ration consisted of 82.2% beet pulp pellets, 9.5% chopped oat hay, 6.0% liquid molasses, 1.5% soybean meal, 0.8% mineralized salt, and monensin (30 g/ton). All lambs were given ad libitum access to the basal diet.
The basal diet was fed for 60 days and on days 61 and 62, lambs were weighed to calculate initial body weight. Lambs were blocked by weight, without regard to gender, and randomly assigned within weight blocks to pens, and pens were randomly assigned to dietary treatments (14 lambs/treatment).
as §6
The fourth column is standard error of measurement (SEM). The last two columns are P values for the statistical comparison of the alpha group versus the gamma group, and the control group versus the alpha and gamma groups.

pigs [5] = assay: Minolta Chroma Meter L*, a*, b* of pork chops in simulated retail display; assay type: in vivo
Description: as §2
(§7) Pork chops (2.5 cm) were cut from vacuum-packaged pork loins that had been stored for 21 days at 1 degree C. Freshly cut chops were placed on styrofoam trays with DriLoc (V 50 pads) and overwrapped with PVC (23,250 cc/m 2 /24 hours oxygen permeability). Pork chops were placed in simulated retail display at 2±3 degrees C. for six days. Product temperature was monitored during the display period. Chops were analyzed for lightness (L*), redness (a*), and yellowness (b*) using Illuminant C or D65 on a Minolta Chroma Meter. Three readings per chop were taken on display days 0, 1, 2, 3, 4 and 5.
as §5

pigs [6] = assay type: in vivo, swine
Source text: The data was derived from the same swine tests as in Example 1. Data from 43 samples was ranked in descending order for four parameters: alpha-tocopherol concentration, gamma-tocopherol concentration, alpha plus gamma-tocopherol concentration, and ratio of alpha-tocopherol to gamma-tocopherol. The data was divided into four quartiles, averaged, and compared to the corresponding quartile loin pH average.

pigs [7] = assay: Visual panel appearance score of pork loin chops in simulated retail display; assay type: in vivo
Description: as §2, §7
Loin chop color was evaluated using a trained visual panel of 10 people. Color score was determined using a five-point scale with a score of one (1) representing a very bright pinkish gray and a score of five (5) representing a dull dark red to brown color representative of color deterioration.
as §5

[8] = pork loin, all supplemented levels pooled
[9] = five-point scale, all supplemented levels pooled

## Cc1c(C)c2c(c(C)c1O)CC[C@@](C)(CCC[C@H](C)CCC[C@H](C)CCCC(C)C)O2 [Alpha-tocopherol, alpha-tocopherol, reference compound]
Pigs [1]; all supplemented levels pooled
  PH: 5.97
Pigs [1]; dietary level 300 IU
  PH: 6.08^ab
Pigs [1]; dietary level 450 IU
  PH: 5.85^b
Pigs [2]; dietary level 300 IU
  Japanese Color Score: 3.56^ab
Pigs [2]; dietary level 450 IU
  Japanese Color Score: 3.94^ab
Pigs [2]; [8]
  Japanese Color Score: 3.75
Lambs [3]
  Bone maturity: 1.47^b
  Leg score: 10.8
  Adjusted fat: 0.55 cm
  Body wall thickness: 2.13 cm
  Dressing percentage: 48.2
  Quality grade: 5.27
  Rib eye area: 5.63 sq. cm
  Yield grade: 2.42
  Hot carcass weight: 27.4 kg
  Flank streaking: 3.02^a
Lambs [4]; 1st 20 Days
  Gain: feed: 124.2 g/kg
  Intake: 1.43 kg/day
Lambs [4]; 1st 20 Days, 500 IU/kg/day
  ADG: 164.1 g/day
Lambs [4]; 2nd 23 Days
  ADG: 190.9^b g/d
  Gain: feed: 127.1^a g/kg
  Intake: 1.54 kg/day
Lambs [4]; 2nd 23 Days, listed as alpha-tocopherol
  ADG: 190.9 g/day
Lambs [4]; Overall
  ADG: 182.3 g/day
  Gain: feed: 126.0^a g/kg
  Intake: 1.49 kg/day
Lambs [4]
  Interim BW: 52.1 kg
  Final BW: 56.6 kg
Pigs [5]; all supplemented levels pooled
  Minolta L* values (after 5 day retail display): 43.6
  Minolta a* values (after 5 day retail display): 7.49
  Minolta b* values (after 5 day retail display): 4.95
Pigs [5]; dietary level 300 IU
  Minolta L* values (after 5 day retail display): 45.3^ab
  Minolta a* values (after 5 day retail display): 8.40^a
  Minolta b* values (after 5 day retail display): 5.93^ab
Pigs [5]; dietary level 450 IU
  Minolta L* values (after 5 day retail display): 41.9^bc
  Minolta a* values (after 5 day retail display): 6.58^b
  Minolta b* values (after 5 day retail display): 3.97^bc
Pigs [6]; 1st Q of the ranked parameter
  Corresponding quartile loin pH average: 5.80
Pigs [6]; 2nd Q of the ranked parameter
  Corresponding quartile loin pH average: 5.78
Pigs [6]; 3rd Q of the ranked parameter
  Corresponding quartile loin pH average: 6.01
Pigs [6]; 4th Q of the ranked parameter
  Corresponding quartile loin pH average: 5.93
Pigs [7]; dietary level 300 IU
  Appearance score (after 5 day retail display): 3.49
Pigs [7]; dietary level 450 IU
  Appearance score (after 5 day retail display): 4.09
Pigs [7]; [9]
  Appearance score (after 5 day retail display): 3.79

## Cc1c(O)cc2c(c1C)O[C@](C)(CCC[C@H](C)CCC[C@H](C)CCCC(C)C)CC2 [Gamma-tocopherol, gamma-tocopherol]
Pigs [1]; all supplemented levels pooled
  PH: 6.11
Pigs [1]; dietary level 150 IU
  PH: 5.99^ab
Pigs [1]; dietary level 300 IU
  PH: 6.28^a
Pigs [1]; dietary level 450 IU
  PH: 5.94^b
Pigs [2]; dietary level 150 IU
  Japanese Color Score: 3.18^ab
Pigs [2]; dietary level 300 IU
  Japanese Color Score: 4.32^a
Pigs [2]; dietary level 450 IU
  Japanese Color Score: 3.56^ab
Pigs [2]; [8]
  Japanese Color Score: 3.94
Lambs [3]
  Bone maturity: 1.62^ab
  Leg score: 10.8
  Adjusted fat: 0.47 cm
  Body wall thickness: 1.92 cm
  Dressing percentage: 46.8
  Quality grade: 5.23
  Rib eye area: 5.62 sq. cm
  Yield grade: 2.19
  Hot carcass weight: 27.7 kg
  Flank streaking: 2.40^ab
Lambs [4]; 1st 20 Days
  Gain: feed: 132.6 g/kg
  Intake: 1.35 kg/day
Lambs [4]; 1st 20 Days, 500 IU/kg/day
  ADG: 173.5 g/day
Lambs [4]; 2nd 23 Days
  ADG: 264.0^a g/d
  Gain: feed: 187.2^b g/kg
  Intake: 1.45 kg/day
Lambs [4]; 2nd 23 Days, listed as gamma-tocopherol
  ADG: 264.0 g/day
Lambs [4]; Overall
  ADG: 221.9 g/day
  Gain: feed: 162.8^b g/kg
  Intake: 1.40 kg/day
Lambs [4]
  Interim BW: 53.0 kg
  Final BW: 59.1 kg
Pigs [5]; all supplemented levels pooled
  Minolta L* values (after 5 day retail display): 41.4
  Minolta a* values (after 5 day retail display): 8.13
  Minolta b* values (after 5 day retail display): 4.48
Pigs [5]; dietary level 150 IU
  Minolta L* values (after 5 day retail display): 42.4^bc
  Minolta a* values (after 5 day retail display): 7.57^ab
  Minolta b* values (after 5 day retail display): 5.13^bc
Pigs [5]; dietary level 300 IU
  Minolta L* values (after 5 day retail display): 39.7^c
  Minolta a* values (after 5 day retail display): 8.20^a
  Minolta b* values (after 5 day retail display): 3.85^c
Pigs [5]; dietary level 300 IU, listed as gamma-tocopherol
  Minolta a* values (after 5 day retail display): 8.40
Pigs [5]; dietary level 450 IU
  Minolta L* values (after 5 day retail display): 43.0^b
  Minolta a* values (after 5 day retail display): 8.05^a
  Minolta b* values (after 5 day retail display): 5.12^bc
Pigs [6]; 1st Q of the ranked parameter
  Corresponding quartile loin pH average: 6.03
Pigs [6]; 2nd Q of the ranked parameter
  Corresponding quartile loin pH average: 5.95
Pigs [6]; 3rd Q of the ranked parameter
  Corresponding quartile loin pH average: 5.77
Pigs [6]; 4th Q of the ranked parameter
  Corresponding quartile loin pH average: 5.77
Pigs [7]; dietary level 150 IU
  Appearance score (after 5 day retail display): 4.05
Pigs [7]; dietary level 300 IU
  Appearance score (after 5 day retail display): 4.06
Pigs [7]; dietary level 450 IU
  Appearance score (after 5 day retail display): 3.72
Pigs [7]; [9]
  Appearance score (after 5 day retail display): 3.89
